From patent US11000515B2, “Compounds that interact with the Ras superfamily for the treatment of cancers, inflammatory diseases, rasopathies, and fibrotic disease” (Shy Therapeutics LLC, priority 2017, dated 2021)
Like-named read-outs stand apart in the source and are kept apart here. Values belong to the molecule of their own block, whether it stands above or below them.

Legend:
[1] = target: KRas wild type (Homo sapiens (Human), UniProt P01116); assay: Ras GTP binding domain inhibition assay (labeled GTP)
Sequence of KRas wild type (P01116-2 other isoform, or with tags, fused parts or gaps): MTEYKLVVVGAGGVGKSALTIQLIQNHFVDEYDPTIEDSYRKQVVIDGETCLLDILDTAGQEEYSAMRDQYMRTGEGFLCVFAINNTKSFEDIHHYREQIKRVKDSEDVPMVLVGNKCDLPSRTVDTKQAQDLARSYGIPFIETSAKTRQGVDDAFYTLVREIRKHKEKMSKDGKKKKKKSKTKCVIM
Description: (§1) Buffer-I: • 50 mM Tris, pH 7.5 • 150 mM NaCl (optional) • 1 mM MgCl2 • 1 mM DTT. • KRas G12D mutant protein was expressed as a His-tagged protein. Purified His-KRas G12D protein was diluted in buffer-I to a final concentration of 3-10 μg/ml. • 200 μl of the diluted His-KRas G12D protein was added to a nickel coated 96 well plate and incubated overnight at 4° C. • The next day, wells were washed 3× in 200 μl of Buffer-I. • Then 200 μl of Buffer-I were added to each well in the presence of 1% DMSO. • Tested compounds were added to the protein-coated wells at a concentration of 20 μM, and incubated for 3 hours at room temperature. While performing IC50 measurements a serial dilution of all tested concentrations was prepared.
(§2) Then 22 μl of Cy3-GTP or Cy5-GTP was added to each well. The labeled GTP was incubated for 45 min. at room temperature. • Following GTP incubation, wells were washed 3× in Buffer-I, and 200 μl of Buffer-I were added to each well. • Following washes, the amount of bound labeled-GTP was measured with an Eppendorf AF2200 plate reader.
(§3) By substituting KRas G12D mutant protein with KRas G12C mutant, KRas wild type, KRas Q61H mutant, KRas G12D/Q61H double mutant or KRas G12C/Q61H double mutant under the assay conditions described above, KRas G12C mutant KRas wild type, KRas Q61H mutant, KRas G12D/Q61H double mutant and KRas G12C/Q61H double mutant inhibition, respectively, were each determined.

[2] = target: KRas G12D/Q61H double mutant (Homo sapiens (Human), UniProt P01116, G12D/Q61H); assay: as above
Sequence of KRas G12D/Q61H double mutant (P01116-2 other isoform, or with tags, fused parts or gaps G12D/Q61H): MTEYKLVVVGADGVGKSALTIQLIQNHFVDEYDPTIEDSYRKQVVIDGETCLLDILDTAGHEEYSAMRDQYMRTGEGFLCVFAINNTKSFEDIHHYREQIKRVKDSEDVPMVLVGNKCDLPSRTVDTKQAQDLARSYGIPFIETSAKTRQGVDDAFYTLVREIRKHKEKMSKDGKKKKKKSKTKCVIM
Description: as §1, §2, §3

[3] = target: KRas G12C mutant (Homo sapiens (Human), UniProt P01116, G12C); assay: as above
Sequence of KRas G12C mutant (P01116-2 other isoform, or with tags, fused parts or gaps G12C): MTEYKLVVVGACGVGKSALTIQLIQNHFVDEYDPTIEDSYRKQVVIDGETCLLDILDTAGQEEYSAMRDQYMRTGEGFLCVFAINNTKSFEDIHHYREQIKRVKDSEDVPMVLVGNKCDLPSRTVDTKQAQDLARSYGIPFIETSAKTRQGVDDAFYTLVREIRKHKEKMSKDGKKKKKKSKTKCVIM
Description: as §1, §2, §3

[4] = target: KRas G12D mutant protein (Homo sapiens (Human), UniProt P01116, G12D); assay: as above
Sequence of KRas G12D mutant protein (P01116-2 other isoform, or with tags, fused parts or gaps G12D): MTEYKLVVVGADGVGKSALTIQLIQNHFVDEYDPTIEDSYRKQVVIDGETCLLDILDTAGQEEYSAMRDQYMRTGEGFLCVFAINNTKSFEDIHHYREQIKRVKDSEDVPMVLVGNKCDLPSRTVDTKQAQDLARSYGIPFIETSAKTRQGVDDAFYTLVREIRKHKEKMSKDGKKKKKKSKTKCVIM
Description: The following method was developed as specific assay for KRas G12D mutant protein.
as §1, §2

[5] = system: TNFα production in RAW 264.7 macrophage cell line; assay: Mouse TNF alpha quantification assay (LPS-stimulated RAW 264.7, ELISA); type: cell-based; details: RAW264.7, LPS-stimulated RAW 264.7 macrophage cell line, read-out: TNF-α % Inhibition at 30 μM
[6] = system: IL6 production in RAW 264.7 macrophage cell line; assay: Mouse IL6 quantification assay (LPS-stimulated RAW 264.7, ELISA); type: cell-based; details: RAW264.7, LPS-stimulated RAW 264.7 macrophage cell line, read-out: IL-6 % Inhibition at 30 μM
[7] = target: KRas Q61H mutant (Homo sapiens (Human), UniProt P01116, Q61H); assay: Ras GTP binding domain inhibition assay (labeled GTP); details: 20 μM compound
Sequence of KRas Q61H mutant (P01116-2 other isoform, or with tags, fused parts or gaps Q61H): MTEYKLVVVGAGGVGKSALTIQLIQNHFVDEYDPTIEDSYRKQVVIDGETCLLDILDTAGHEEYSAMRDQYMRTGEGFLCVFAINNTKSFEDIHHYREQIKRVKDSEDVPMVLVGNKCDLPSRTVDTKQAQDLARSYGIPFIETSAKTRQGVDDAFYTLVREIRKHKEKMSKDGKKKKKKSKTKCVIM
Description: as §1, §2, §3

[8] = target: KRas G12C/Q61H double mutant (Homo sapiens (Human), UniProt P01116, G12C/Q61H); assay: as above; details: 20 μM compound
Sequence of KRas G12C/Q61H double mutant (P01116-2 other isoform, or with tags, fused parts or gaps G12C/Q61H): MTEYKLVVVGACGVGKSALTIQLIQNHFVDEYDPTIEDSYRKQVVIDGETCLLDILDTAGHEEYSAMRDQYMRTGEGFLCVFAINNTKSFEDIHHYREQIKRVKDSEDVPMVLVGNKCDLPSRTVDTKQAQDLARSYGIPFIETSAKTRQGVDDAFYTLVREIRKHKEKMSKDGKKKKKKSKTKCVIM
Description: as §1, §2, §3

[9] = compound at 20 μM, read-out: % Inhibition at 20 μM, KRas G12D Q61H
[10] = 20 μM compound, read-out: % Inhibition at 20 μM, KRas G12D Q61H

inhibition at 20 µM ([1]; compound at 20 μM): 76 to 100%
inhibition at 20 µM [2, 9]: 51 to 75%
inhibition at 20 µM ([3]; compound at 20 μM): 25 to 50%
inhibition at 20 µM ([4]; compound at 20 μM): 51 to 75%
Structure (SMILES): O=C(c1csc2c(O)nc(-c3ccccn3)nc12)N1CCN(c2cccnc2)CC1

Structure (SMILES): O=C(c1csc2c(O)nc(-c3ccccn3)nc12)N1CCNC(Cc2cccc(F)c2)C1 (stereo not shown)
inhibition at 30 µM [5]: 1 to 25%
inhibition at 30 µM [6]: 26 to 50%

inhibition at 20 µM [7]: 51 to 75%
inhibition at 20 µM [8]: 51 to 75%
inhibition at 20 µM [2, 10]: 51 to 75%
Structure (SMILES): COc1nc(-c2ccccn2)nc2c(C)c(C(=O)N3CCN(c4ccccc4)CC3)sc12

inhibition at 20 µM ([1]; 20 μM compound): 25 to 50%
inhibition at 20 µM [7]: 51 to 75%
inhibition at 20 µM [8]: 51 to 75%
inhibition at 20 µM [2, 10]: 51 to 75%
inhibition at 20 µM ([3]; 20 μM compound): 25 to 50%
inhibition at 20 µM ([4]; 20 μM compound): 25 to 50%
Structure (SMILES): CCC(C)c1csc2c(O)nc(-c3ccccn3)nc12 (stereo not shown) [drawing 3492]

inhibition at 20 µM ([1]; 20 μM compound): 25 to 50%
inhibition at 20 µM ([3]; 20 μM compound): 1 to 25%
Structure (SMILES): Cc1sc2c(O)nc(-c3nccn3C)nc2c1-c1ccccc1Cl

inhibition at 20 µM ([1]; 20 μM compound): 25 to 50%
inhibition at 20 µM [7]: 51 to 75%
inhibition at 20 µM [8]: 25 to 50%
inhibition at 20 µM [2, 10]: 25 to 50%
inhibition at 20 µM ([3]; 20 μM compound): 51 to 75%
inhibition at 20 µM ([4]; 20 μM compound): 25 to 50%
Structure (SMILES): OC[C@H]1O[C@@H](c2csc3c2N=C(c2ccccn2)NC3O)[C@H](O)[C@@H]1O (stereo partly shown)

Structure (SMILES): COCCNc1nc(-c2cccc(C)n2)nc2sc(-c3ccccc3)c(-c3ccccc3)c12
inhibition at 30 µM [5]: 26 to 50%
inhibition at 30 µM [6]: 26 to 50%

inhibition at 20 µM [2, 10]: 25 to 50%
Structure (SMILES): CC(C)c1cnc(CN2CC(C)N(Cc3ncc(C(C)C)o3)c3ccccc32)o1 (stereo not shown)

KRas G12D Q61H % Inh. ([2]; 20 μM): C (C = 51-75% inhibition)
Structure (SMILES): CS(=O)(=O)CCCC(=O)N1CCCc2c(O)nc(-c3ccccn3)nc21

inhibition at 20 µM [2, 9]: 25 to 50%
Structure (SMILES): Cc1sc2nc(-c3cnccn3)[nH]c(=O)c2c1-c1ccccc1

inhibition at 20 µM [2, 9]: 25 to 50%
Structure (SMILES): CCOC(=O)c1sc(N(C2CC2)S(=O)(=O)c2cc(F)ccc2F)nc1C

Structure (SMILES): COc1cc(CNc2nc(-c3ccccn3)nc3scc(-c4ccccc4)c23)ccc1OCC(N)=O
inhibition at 30 µM [5]: 76 to 100%
inhibition at 30 µM [6]: 76 to 100%

inhibition at 20 µM [2, 9]: 1 to 25%
Structure (SMILES): Cc1ccc(OCc2nnc(SCC3CCCOC3)o2)cc1 (stereo not shown)

inhibition at 20 µM [2, 10]: 25 to 50%
Structure (SMILES): OCC1(Cc2ccccc2)CCCN1c1nc(-c2ccccc2)nc2c1CCC2 (stereo not shown)

Structure (SMILES): CC(C)C(=O)Nc1nc(CC(=O)Nc2nnc(-c3ccccc3)[nH]2)cs1
inhibition at 30 µM [5]: 1 to 25%
inhibition at 30 µM [6]: 0%

inhibition at 20 µM [2, 10]: 1 to 25%
Structure (SMILES): Cc1ccccc1N(CC(=O)NCC1CCCCCCC1)S(C)(=O)=O

inhibition at 20 µM ([2]; 20 μM, read-out: KRas G12D Q61H % Inh.): 51 to 75%
Structure (SMILES): COc1ccccc1OCC(=O)Nc1nnc(-c2ccccn2)[nH]1 [drawing 2552]

inhibition at 20 µM [2, 10]: 25 to 50%
Structure (SMILES): O=C(NCC(F)(F)F)c1ccc(CN(Cc2cc(Cl)cc3c2OCOC3)C2CC2)cc1

inhibition at 20 µM [2, 10]: 25 to 50%
Structure (SMILES): COc1cccc(-c2nc(C(=O)N3CCC(c4ccccc4)CC3)cs2)c1OC

Structure (SMILES): O=C(c1csc2c(O)nc(-c3ccccn3)nc12)N1CCN(c2ccccc2)CC1
inhibition at 30 µM [5]: 51 to 75%
inhibition at 30 µM [6]: 76 to 100%

Structure (SMILES): CC(C)COc1ccc(-c2csc3c(O)nc(-c4ccccn4)nc23)nc1
inhibition at 30 µM [5]: 51 to 75%
inhibition at 30 µM [6]: 76 to 100%

Structure (SMILES): Nc1nc(-c2ccccn2)nc2c(-c3ccccn3)csc12
inhibition at 30 µM [5]: 76 to 100%
inhibition at 30 µM [6]: 76 to 100%

inhibition at 20 µM ([1]; compound at 20 μM): 25 to 50%
inhibition at 20 µM ([3]; compound at 20 μM): 1 to 25%
Structure (SMILES): Cc1cc2nc(-c3ccccn3)nc(O)c2s1

Structure (SMILES): CN(CC(=O)N1CCOCC1)c1nc(-c2ccccn2)nc2scc(-c3ccccc3)c12
inhibition at 30 µM [5]: 1 to 25%
inhibition at 30 µM [6]: 1 to 25%

inhibition at 20 µM ([1]; 20 μM compound): 51 to 75%
inhibition at 20 µM ([3]; 20 μM compound): 25 to 50%
inhibition at 20 µM ([4]; 20 μM compound): 25 to 50%
Structure (SMILES): COCCNc1nc(-c2nccn2C)nc2sc(-c3ccccc3)c(-c3cccnc3)c12

Structure (SMILES): Brc1csc2nc(-c3ccccn3)nc(Br)c12
inhibition at 30 µM [5]: 76 to 100%
inhibition at 30 µM [6]: 76 to 100%

inhibition at 20 µM [7]: 25 to 50%
inhibition at 20 µM [8]: 25 to 50%
Structure (SMILES): COc1cnc(CNC(=O)c2csc3nc(-c4ccccn4)nc(N)c23)[nH]c1=O

Structure (SMILES): COc1ccc(C(=O)Nc2nc(-c3ccccn3)cs2)cn1
inhibition at 30 µM [5]: 51 to 75%
inhibition at 30 µM [6]: 76 to 100%
